Laboratory results taken from patent publication US11844790B2, “Methods of treating hidradenitis suppurativa” (CHEMOCENTRYX, INC., priority 2020, dated 2023).
Marks after values point to notes of the source that are not given here.

Assays:
[1] = test system: patients with moderate-to-severe HS; settings: human, in vivo
Procedure: (§1) The study is a randomized, double-blind, placebo-controlled, three group Phase 2 trial in approximately 390 subjects with moderate to severe hidradenitis suppurativa (Hurley stage II or III). Subjects will be randomized 1:1:1 to a treatment of 10 mg Avacopan twice daily, 30 mg Avacopan twice daily or placebo for 12 weeks. Other systemic treatments for HS including anti-TNF-αtreatments are prohibited. Stable antibiotic therapy with doxycycline or minocycline is allowed as specified in the protocol. Subjects treated with 10 mg or 30 mg twice daily during the blinded, placebo-controlled 12-week treatment period will be followed by an additional 24-week, active treatment period during which they will continue to receive the same dose regimen, either 10 mg or 30 mg Avacopan twice daily. Subjects on placebo who complete the blinded, placebo-controlled 12-week period will be re-randomized 1:1 to receive 10 mg or 30 mg Avacopan twice daily during the 24-week active treatment period. During the 24-week active treatment period the treatment assignment to 10 mg or 30 mg twice daily will not be disclosed to the patient, study personnel at the site or the sponsor. Thereafter, all subjects will be followed without study drug for 8 weeks before they exit the study.
(§2) The primary objectives of this clinical trial include: • 1. Evaluation of the efficacy of Avacopan compared to placebo in subjects with Hurley Stage II or III hidradenitis suppurativa (HS) based on subjects achieving a Hidradenitis Suppurativa Clinical Response (HiSCR) after 12 weeks of treatment. HiSCR is defined as at least a 50% reduction in abscess and inflammatory nodule (AN) count with no increase in abscess count and no increase in draining fistula count at Week 12 relative to baseline. • 2. Evaluation of the safety of Avacopan compared to placebo in these subjects based on the adverse event incidence, changes from baseline in laboratory parameters, and vital signs Secondary Objectives
The majority of TEAEs were related to underlying HS and were mild to moderate.

[2] = test system: patients with moderate HS (Hurley Stage II) or severe HS (Hurley Stage III); experiment: Phase II AURORA clinical trial, Hidradenitis Suppurativa Clinical Response (HiSCR) and secondary efficacy endpoints; type: in vivo, human; settings: for HiSCR (%) / HiSCR n/N / HiSCR Δ % vs placebo: week 12
Procedure: as §1
Subjects will be randomized 1:1:1 to receive 10 mg Avacopan twice daily, 30 mg Avacopan twice daily or matching placebo for 12 weeks in a double-blind, placebo-controlled manner.
as §2
The secondary objectives of this study include: • 1. Evaluation of the efficacy of Avacopan compared to placebo in these subjects include: • a. HiSCR: proportion of subjects achieving HiSCR by each timepoint, • b. The subject's global assessment of skin pain numeric rating scale (NRS), • c. The modified Sartorius score, and • d. Achieving an AN count of 0, 1, or 2 • 2. Assessment of subject reported outcomes including health-related quality-of-life changes based on the Short Form-36 version 2 (SF-36 v2), the EuroQOL-5D-5L (EQ-5D-5L), Hidradenitis Suppurativa Quality of Life (HiSQOL) Index, the Dermatology Life Quality Index (DLQI), and the Work Productivity and Activity Impairment Questionnaire: Specific Health Problem (WPAI: SHP) with Avacopan compared to placebo. • 3. Evaluation of the pharmacokinetic profile of Avacopan in subjects with HS. • 4. Evaluation of the safety and efficacy of Avacopan treatment from Day 1 by each timepoint up to Week 44 in subjects with HS. • 5. Evaluation of the efficacy of avacopan compared to placebo in these subjects include: • a. The Sartorius score, International HS Severity Scoring System (IHS4) score, HS Physician Global Assessment (HS-PGA), • b. Proportion of subjects who experienced flare, who experienced loss of response during Period 2, who received oral antibiotic rescue therapy or lesion intervention, and who received disallowed opioid pain therapy, and • c. The duration of flare in days. • 6. Evaluation of health-economic information. Study Treatments
The International Hidradenitis Suppurativa Severity Score (IHS4) is simple to calculate and validated with the use of existing physician-derived outcomes such as HS-PGA, Hurley classification, MSS or Expert Opinion classification) and patient-reported outcome measure (DLQI). […]

[3] = Solubility of Avacopan as a function of pH; type: physicochemical; settings: pH value of 3 or above (gastric fluid)
[4] = Avacopan 10 mg BID, All patients
[5] = Avacopan 10 mg BID, Hurley Stage II
[6] = Avacopan 10 mg BID, Hurley Stage III
[7] = Avacopan 30 mg BID, All patients
[8] = Avacopan 30 mg BID, Hurley Stage II
[9] = Avacopan 30 mg BID, Hurley Stage III

SMILES: Cc1ccc(NC(=O)[C@H]2CCCN(C(=O)c3c(C)cccc3F)[C@H]2c2ccc(NC3CCCC3)cc2)cc1C(F)(F)F [Avacopan]
- safety profile [1]: favorable safety profile
- Serious TEAEs ([1]; 12 weeks): 1.5%
- Treatment emergent adverse events (TEAEs) of all types ([1]; 12 weeks): 48.5%
- primary endpoint: proportion of all patients achieving HiSCR against placebo ([2]; 10 mg BID and 30 mg BID, combined study population (Hurley Stage II plus III), after 12 weeks): not achieved with statistical significance at either dose level
- proportion of all patients achieving HiSCR against placebo ([2]; 30 mg BID, combined study population, after 12 weeks): numerical improvement
- HiSCR response against placebo ([2]; 30 mg BID, pre-specified population of Hurley Stage III (severe) HS patients): statistically significant higher response than placebo
- HiSCR (%) [2, 4]: (22.4) %
- HiSCR n/N [2, 4]: 30/134
- HiSCR Δ % vs placebo [2, 4]: −8.2%
- HiSCR (%) [2, 5]: (21.4) %
- HiSCR n/N [2, 5]: 18/84
- HiSCR Δ % vs placebo [2, 5]: −13.8%
- HiSCR (%) [2, 6]: (24.0) %
- HiSCR n/N [2, 6]: 12/50
- HiSCR Δ % vs placebo [2, 6]: 1.8%
- HiSCR (%) [2, 7]: (35.1) %
- HiSCR n/N [2, 7]: 47/134
- HiSCR Δ % vs placebo [2, 7]: 4.4%
- HiSCR (%) [2, 8]: (31.0) %
- HiSCR n/N [2, 8]: 27/87
- HiSCR Δ % vs placebo [2, 8]: −4.3%
- HiSCR (%) [2, 9]: (42.6) %
- HiSCR n/N [2, 9]: 20/47
- HiSCR Δ % vs placebo ([2]; Avacopan 30 mg BID, Hurley Stage III, p = 0.0349): 20.3* %
- AN (abscesses and inflammatory nodules) count, % change from baseline to week 12 relative to placebo ([2]; Hurley Stage III patients): Favorable reductions
- International HS Severity Score (IHS4), % change from baseline to week 12 relative to placebo ([2]; Hurley Stage III patients): Favorable reductions
- abscess count, % change from baseline to week 12 relative to placebo ([2]; Hurley Stage III patients): Favorable reductions
- draining fistula count, % change from baseline to week 12 relative to placebo ([2]; Hurley Stage III patients): Favorable reductions
- solubility [3]: normally insoluble
